# Experimental data published in ChEMBL document CHEMBL5385865, “Discovery and optimization of 2-(trifluoromethyl)benzimidazole derivatives as novel ferroptosis inducers in vitro and in vivo” (Eur J Med Chem, 2023).
# Activity calls are given as the source filed them. The rule behind the calls is not given here.
# Key:
# [1] = Toxicity in human L02 cells upto 20 uM incubated for 48 hrs by MTT assay; format: cell-based; conditions: l02, 48 h
# [2] = Metabolic stability in human liver microsomes assessed as intrinsic clearance measured per mg protein at 1 uM in presence of NADPH by LC-MS analysis; format: ADME, Microsome; conditions: read-out: CLH
# [3] = Toxicity in human AC16 cells upto 20 uM incubated for 48 hrs by MTT assay; format: cell-based; conditions: ac16 [human hybrid]
# MDA-MB-231 [4] = assay: Lethality in human MDA-MB-231 cells assessed as decrease in cell viability at 10 uM incubated for 48 hrs by MTT assay; format: functional, cell-based
# [5] = Toxicity in human NCM460 cells upto 20 uM incubated for 48 hrs by MTT assay; format: cell-based; conditions: ncm460, 48 h
# HT-1080 [6] = assay: Induction of ferroptosis in human HT-1080 cells assessed as increase in cytosolic ROS accumulation at 5 uM incubated for 10 hrs in presence of Fer-1 by H2DCFDA probe based flow cytometry; format: functional, cell-based
# [7] = Metabolic stability in human liver microsomes assessed as half life at 1 uM in presence of NADPH by LC-MS analysis; format: ADME, Microsome
# HepG2 [8] = assay: Lethality in human HepG2 cells assessed as inhibition of cell viability incubated for 24 hrs by MTT assay; format: functional, cell-based; conditions: HepG2, 24 h
# A-375 = assay: Lethality in human A-375 cells assessed as inhibition of cell viability incubated for 24 hrs by MTT assay; format: functional, cell-based; conditions: A-375, 24 h
# MDA-MB-231 [9] = assay: Lethality in human MDA-MB-231 cells assessed as decrease in cell viability at 10 uM incubated for 48 hrs in presence of DFO by MTT assay; format: functional, cell-based
# [10] = Toxicity in BALB/c nude mouse xenografted with human HepG2 cells assessed as histological change in liver at 15 to 30 mg/kg, ip administered every other day for 21 days by H and E staining based analysis; format: organism-based; conditions: in vivo, 504 h, dose 15-30 mg/kg, time 21 day
# [11] = Toxicity in BALB/c nude mouse xenografted with human HepG2 cells assessed as effect on serum ALP level at 15 to 30 mg/kg, ip administered every other day for 21 days; format: organism-based; conditions: in vivo, 504 h, dose 15-30 mg/kg, time 21 day
# HeLa [12] = assay: Lethality in human HeLa cells assessed as decrease in cell viability at 10 uM incubated for 48 hrs in presence of DFO by MTT assay; format: functional, cell-based
# [13] = Toxicity in BALB/c nude mouse xenografted with human HepG2 cells assessed as effect on serum LDH level at 15 to 30 mg/kg, ip administered every other day for 21 days; format: organism-based; conditions: in vivo, 504 h, dose 15-30 mg/kg, time 21 day
# [14] = Toxicity in BALB/c nude mouse xenografted with human HepG2 cells assessed as histological change in spleen at 15 to 30 mg/kg, ip administered every other day for 21 days by H and E staining based analysis; format: organism-based; conditions: in vivo, 504 h, dose 15-30 mg/kg, time 21 day
# DU-145 [15] = assay: Lethality in human DU-145 cells assessed as decrease in cell viability at 10 uM incubated for 48 hrs by MTT assay; format: functional, cell-based
# [16] = Toxicity in BALB/c nude mouse xenografted with human HepG2 cells assessed as effect on serum CREA level at 15 to 30 mg/kg, ip administered every other day for 21 days; format: organism-based; conditions: in vivo, 504 h, dose 15-30 mg/kg, time 21 day
# [17] = Toxicity in BALB/c nude mouse xenografted with human HepG2 cells assessed as histological change in heart at 15 to 30 mg/kg, ip administered every other day for 21 days by H and E staining based analysis; format: organism-based; conditions: in vivo, 504 h, dose 15-30 mg/kg, time 21 day
# HT-1080 [18] = assay: Induction of ferroptosis in human HT-1080 cells assessed as cell death at 10 uM incubated for 24 hrs in presence of Trolox by MTT assay; format: functional, cell-based
# HT-1080 [19] = assay: Induction of ferroptosis in human HT-1080 cells assessed as increase in mitochondrial membrane density at 5 uM incubated for 24 hrs by TEM analysis; format: functional, cell-based
# HepG2 [20] = assay: Inhibition of cell proliferation in human HepG2 cells xenografted in BALB/c nude mouse at 15 to 30 mg/kg, ip administered every other day for 21 days by Ki67 staining based IHC analysis; format: functional, organism-based; conditions: dose 15-30 mg/kg, time 21.0 day
# [21] = Toxicity in BALB/c nude mouse xenografted with human HepG2 cells assessed as effect on serum TBIL level at 15 to 30 mg/kg, ip administered every other day for 21 days; format: organism-based; conditions: in vivo, 504 h, dose 15-30 mg/kg, time 21 day
# DU-145 [22] = assay: Lethality in human DU-145 cells assessed as inhibition of cell viability incubated for 24 hrs by MTT assay; format: functional, cell-based; conditions: DU-145, 24 h
# HT-1080 [23] = assay: Induction of ferroptosis in human HT-1080 cells assessed as shrinkage of mitochondria at 5 uM incubated for 24 hrs by TEM analysis; format: functional, cell-based
# HeLa [24] = assay: Lethality in human HeLa cells assessed as inhibition of cell viability incubated for 24 hrs by MTT assay; format: functional, cell-based
# HT-1080 [25] = assay: Effect on GPX4 mRNA level in human HT-1080 cells at 0.5 to 5 uM incubated for 18 hrs by qPCR analysis; format: functional, cell-based; conditions: dose 0.5-5 µM
# 786-0 = assay: Lethality in human 786-0 cells assessed as decrease in cell viability at 10 uM incubated for 48 hrs in presence of Fer-1 by MTT assay; format: functional, cell-based
# HeLa [26] = assay: Lethality in human HeLa cells assessed as decrease in cell viability at 10 uM incubated for 48 hrs in presence of Fer-1 by MTT assay; format: functional, cell-based
# HT-1080 [27] = assay: Lethality in human HT-1080 cells assessed as inhibition of cell viability incubated for 24 hrs by MTT assay; format: functional, cell-based; conditions: HT-1080, 24 h
# HepG2 [28] = assay: Induction of ferroptosis in human HepG2 cells xenografted in BALB/c nude mouse assessed as increase in 4-HNE level administered intraperitoneally every other day for 21 days; format: functional; conditions: dose 15-30 mg/kg, route ip, time 21.0 day
# HepG2 [29] = assay: Lethality in human HepG2 cells assessed as decrease in cell viability at 10 uM incubated for 48 hrs in presence of Fer-1 by MTT assay; format: functional, cell-based
# HT-1080 [30] = assay: Induction of ferroptosis in human HT-1080 cells assessed as cell death at 10 uM incubated for 24 hrs in presence of Fer-1 by MTT assay; format: functional, cell-based
# MDA-MB-231 [31] = assay: Lethality in human MDA-MB-231 cells assessed as inhibition of cell viability incubated for 24 hrs by MTT assay; format: functional, cell-based; conditions: MDA-MB-231, 24 h
# DU-145 [32] = assay: Lethality in human DU-145 cells assessed as decrease in cell viability at 10 uM incubated for 48 hrs in presence of Fer-1 by MTT assay; format: functional, cell-based
# [33] = Toxicity in BALB/c nude mouse xenografted with human HepG2 cells assessed as effect on serum UREA level at 15 to 30 mg/kg, ip administered every other day for 21 days; format: organism-based; conditions: in vivo, 504 h, dose 15-30 mg/kg, time 21 day
structure (smiles),measurement,setting,value
CN(C)S(=O)(=O)c1ccc(N2CCC(Cn3c(C(F)(F)F)nc4ccccc43)CC2)cc1,Activity,[1],Non-Toxic
same,microsomal CLint at 1 µM,[2],88.6 µL/min/mg
same,Activity,[3],Non-Toxic
same,Activity,MDA-MB-231 [4],Active
same,Activity,[5],Non-Toxic
same,Activity,HT-1080 [6],inactive
same,half-life at 1 µM,[7],15.6 min
same,IC50,HepG2 [8],1330 nM
same,IC50,A-375,2310 nM
same,Activity,MDA-MB-231 [9],inactive
same,Activity,[10],Non-Toxic
same,Activity,[11],Non-Toxic
same,Activity,HeLa [12],inactive
same,Activity,[13],Non-Toxic
same,Activity,[14],Non-Toxic
same,Activity,DU-145 [15],Active
same,Activity,[16],Non-Toxic
same,Activity,[17],Non-Toxic
same,Activity,HT-1080 [18],inactive
same,Activity,HT-1080 [19],Active
same,inhibition,HepG2 [20],Active
same,Activity,[21],Non-Toxic
same,IC50,DU-145 [22],1640 nM
same,Activity,HT-1080 [23],Active
same,IC50,HeLa [24],1910 nM
same,Activity,HT-1080 [25],inactive
same,Activity,786-0,inactive
same,Activity,HeLa [26],inactive
same,IC50,HT-1080 [27],1260 nM
same,Activity,HepG2 [28],Dose-Dependent Effect
same,Activity,HepG2 [29],inactive
same,Activity,HT-1080 [30],inactive
same,IC50,MDA-MB-231 [31],4340 nM
same,Activity,DU-145 [32],inactive
same,Activity,[33],Non-Toxic
